# Measured values taken from patent publication US20240424103A1, “ANTICANCER AGENT, PRODRUG OF ANTICANCER AGENT, METHOD FOR KILLING CANCER CELL IN VITRO, CANCER […], AND CANCER TREATMENT DEVICE” (NATIONAL INSTITUTE OF ADVANCED INDUSTRIAL SCIENCE AND …, priority 2021, published 2024).
# Values joined by “and” are separate entries in the source; they are usually repeats but may differ in a detail not shown here. Equal entries are not always repeated.
# Key:
# [1] = system: rat gastric mucosal-derived cancer cells (RGK-KO) versus rat gastric mucosal-derived cells (RGM-GFP); test: Cellular intake of ^15N_5-ALA by cancer cells and normal cells, quantitated by 4.43 MeV gamma rays from the ^15N resonance nuclear reaction; format: cell-based; settings: 24 hours after the addition of ^15N_5-ALA; 1 mmol/L in culture medium; RGK-KO vs RGM-GFP
# Protocol: Rat gastric mucosal-derived cells (RGM-GFP) were prepared as normal cells and rat gastric mucosal-derived cancer cells (RGK-KO) were prepared as cancer cells, and the difference in cellular intake of ^15N_5-ALA between the RGM-GFP cells and RGK-KO cells was confirmed as follows. The rat gastric mucosal-derived cells and rat gastric mucosal-derived cancer cells are both derived from the rat and are widely used in research on anticancer agents because they have the same gene sequence (refer to Non-Patent Documents 6 and 7).
# The RGM-GFP cells and RGK-KO cells were cultured for 3 or 4 days on a culture solution adapted to each and were grown to 80% confluence; this was followed by the addition of ^15N_5-ALA and the amount of ^15N intake per cell with elapsed time was measured. […] The cells, which had grown with attachment to the bottom of the Petri dish, were detached from the Petri dish by the addition of trypsin, and the concentration of the liberated cells was measured.
# The concentration was adjusted, and 10^5 cells/2 μL was dripped onto a crystalline silicon substrate and drying was carried out. […] The 4.43 MeV gamma radiation emitted by this resonance nuclear reaction with ^15N was measured using a Bi4Ge3O12 (BGO) detector. […]
# The specific procedure for quantitating the ^15N_5-ALA intake by the RGM-GFP cells and RGK-KO cells was as follows. […]
# RGK-KO cells = test: Proton beam irradiation of RGK-KO cells cultured on ^15N_5-ALA-containing culture medium, surviving fraction by fluorescent protein image and DAPI staining; format: cell-based, rat; settings: ^15N_5-ALA in medium 24 hours before irradiation, charge amount 4.0 nC, 1.3 MeV
# Source text: The RGK-KO cells and RGM-GFP cells cultured on a culture medium containing ^15N_5-ALA and the RGK-KO cells and RGM-GFP cells cultured on a culture medium not containing ^15N_5-ALA were in each instance held sealed in a vacuum along with the culture medium and were irradiated with a proton beam at a prescribed ion charge amount. With regard to the proton beam energy, considering the attenuation of the proton beam energy by the Torelina film and the culture solution sealed in the vacuum, the sample was irradiated at 1.3 MeV to match the 1.21 MeV resonance energy.
# The upper sections show images of RGM-GFP cells made to metabolize a fluorescent protein by genetic recombination; the lower sections each show photographs in which the dead cells are identified by the DAPI staining method, which stains the DNA in the nucleus of dead cells. […]
# The photographs in FIG. 20 show the case of a proton beam irradiation amount of charge of 4.0 nC for both cells. Genes for the metabolism of fluorescent protein are also incorporated in the RGK-KO cells, and the cells present a red color when observed with a fluorescence microscope. […]
smiles,measurement,setting,value
"[15NH2]CC(=O)CCC(=O)O [^15N_5-ALA, 5-aminolevulinic acid in which the nitrogen is nitrogen-15]",intake of ^15N_5-ALA by cancer cells relative to the intake by the normal cells,[1],at least 5 times
same,surviving fraction immediately after (within three hours) proton beam irradiation,RGK-KO cells,73.5% and 85.5%
